Results as given in article PMC8170749, “4-(1-Benzyl-1H-benzo[d]imidazol-2-yl)-4-oxo-2-butenoic Acid Derivatives: Design, Synthesis and Anti-HIV-1 Activity” (Iranian Journal of Pharmaceutical Research : IJPR, 2021).

Tests used:
HIV-1 = test system: HIV-1; parameters: method as in PMID 27659398, PMID 21728968, PMID 22214459, PMID 21767569; settings: cited from earlier work
[1] = parameters: method as in PMID 27659398, PMID 21728968, PMID 22214459, PMID 21767569; settings: cited from earlier work
HIV-1 integrase (IN) = test system: HIV-1 integrase (IN); parameters: method as in PMID 27659398, PMID 21728968, PMID 22214459, PMID 21767569; settings: cited from earlier work
in vitro = settings: human
[2] = test system: single cycle replicable HIV NL4-3 virions; experiment: single-cycle HIV-1 replication assay in HeLa cells (p24 ELISA); format: cell-based; settings: for EC50: Human immunodeficiency virus 1, NL43, HeLa, 72 h, read-out: Anti-HIV-1 activity (EC50)

Row | SMILES | inhibitory activity in cellular assays (HIV-1) | cell toxicity [1] | inhibitory activity in enzymatic assays (HIV-1 integrase (IN)) | CC50 at 72 h (in vitro) [µM] | SI (selectivity index, CC50/EC50 ratio) [2] | EC50 [2] [µM] | CC50 (in vitro) [µM]
1 | COc1cccc2c1c(C(=O)/C=C(\O)C(=O)O)cn2Cc1ccc(F)cc1 [CHI-1043] | submicromolar | low cell toxicity | submicromolar | – | – | – | –
2 | O=C(O)C(O)=CC(=O)c1nc2ccccc2n1Cc1ccccc1 [Compound 13a, 4-(1-benzyl-1H-benzo[d]imidazol-2-yl)-2-hydroxy-4-oxo-2-butenoic acid] | – | – | – | 500 | 4.5 | 110 | –
3 | Cc1ccccc1Cn1c(C(=O)C=C(O)C(=O)O)nc2ccccc21 [Compound 13b, 4-(1-(2-methylbenzyl)-1H-benzo[d]imidazol-2-yl)-2-hydroxy-4-oxo-2-butenoic acid] | – | – | – | 590 | 9.8 | 60 | –
4 | Cc1cccc(Cn2c(C(=O)C=C(O)C(=O)O)nc3ccccc32)c1 [Compound 13c, 4-(1-(3-methylbenzyl)-1H-benzo[d]imidazol-2-yl)-2-hydroxy-4-oxo-2-butenoic acid] | – | – | – | 430 | 5.7 | 75 | –
5 | Cc1ccc(Cn2c(C(=O)C=C(O)C(=O)O)nc3ccccc32)cc1 [Compound 13d, 4-(1-(4-methylbenzyl)-1H-benzo[d]imidazol-2-yl)-2-hydroxy-4-oxo-2-butenoic acid] | – | – | – | 580 | 11.6 | 50 | –
6 | O=C(O)C(O)=CC(=O)c1nc2ccccc2n1Cc1ccccc1Cl [Compound 13e, 4-(1-(2-chlorobenzyl)-1H-benzo[d]imidazol-2-yl)-2-hydroxy-4-oxo-2-butenoic acid] | – | – | – | 380 | 2.4 | 155 | –
7 | O=C(O)C(O)=CC(=O)c1nc2ccccc2n1Cc1cccc(Cl)c1 [Compound 13f, 4-(1-(3-chlorobenzyl)-1H-benzo[d]imidazol-2-yl)-2-hydroxy-4-oxo-2-butenoic acid] | – | – | – | 410 | 7.4 | 55 | –
8 | O=C(O)C(O)=CC(=O)c1nc2ccccc2n1Cc1ccccc1F [Compound 13g, 4-(1-(2-fluorobenzyl)-1H-benzo[d]imidazol-2-yl)-2-hydroxy-4-oxo-2-butenoic acid] | – | – | – | 550 | 13.7 | 40 | –
9 | O=C(O)C(O)=CC(=O)c1nc2ccccc2n1Cc1cccc(F)c1 [Compound 13h, 4-(1-(3-fluorobenzyl)-1H-benzo[d]imidazol-2-yl)-2-hydroxy-4-oxo-2-butenoic acid] | – | – | – | 480 | 8.7 | 55 | –
10 | COc1cccc(Cn2c(C(=O)C=C(O)C(=O)O)nc3ccccc32)c1 [Compound 13i, 4-(1-(3-methoxybenzyl)-1H-benzo[d]imidazol-2-yl)-2-hydroxy-4-oxo-2-butenoic acid] | – | – | – | 490 | 5.4 | 90 | –
11 | O=C(O)/C(O)=C/C(=O)c1cccn1Cc1ccc(F)cc1 [L-731,988] | – | low cell toxicity | – | – | – | – | –
12 | Cc1nnc(C(=O)NC(C)(C)c2nc(C(=O)NCc3ccc(F)cc3)c(O)c(=O)n2C)o1 [Raltegravir, reference compound] | – | – | – | – | – | 0.9 | > 500
